Reference: patent publication US6969590B2, “Use of a polypeptide for treatment of pruritus in animals” (Zengen, Inc., priority 2001, dated 2005)

Key:
[1] = test system: histamine-induced blue weal formation; experiment: Sparrow/Wilhelm assay: histamine-induced blue wheals; type: in vivo, New Zealand white rabbits; details: for relative intensity of blue wheals, experimental vs control: scored 30 minutes after histamine
Source text: This model relies on the principal that localized, subcutaneous injections of histamine will result in a localized increase in capillary permeability. When the test animal has been pretreated with blue dye intravenously, the localized histamine injections will elicit blue-colored wheals around the injection site. Thus, by pre-administration of an effective anti-inflammatory agent the blue color of the histamine-induced wheals will be much less pronounced, with the amount of color reduction being dependent on the relative amount and/or potency of the anti-inflammatory agent used.
Non-molting New Zealand white rabbits were used for the Sparrow/Wilhelm assay. The skin of the rabbits back was closely clipped 1-2 days previous to the experiment, but not depilated, and the rabbits were kept warm until tested. Various amounts of the protected tripeptide Ac-Lys-Pro-Val-NH2 were injected intravenously into an ear vein approximately 15 minutes prior to intravenous injection of blue dye. Control rabbits received sham injections. Fifteen minutes following injection of the agent or sham, the rabbits received approximately 30 mg/kg of Pontamine blue dye as a 2.5% solution in 0.45% saline, into an exposed vein. Immediately following dye injections, histamine was injected intradermally in a 0.10 ml volume (1.25 mg histamine 0.1 ml volume) at several sites on each side of the spine. In all, one vertical row of six injections were made on each side of the spine. The relative intensity of the resultant blue wheals were scored by an independent observer 30 minutes after histamine injection.

[2] = test system: carrageenan-induced swelling in rat paws; experiment: Rat paw edema test; type: in vivo, Sprague-Dawley rats; details: 100 mg/kg intraperitoneal each, hourly, after the first hour
Description: A second in vivo bioassay for anti-inflammatory activity was conducted in which the action of the tripeptide was compared to that of hydrocortisone. In this assay, the two agents were given at similar doses and tested for their independent ability to inhibit carrageenan-induced swelling in rat paws. This assay, the rat paw edema test, was conducted generally as it is typically performed in the art, for example, as described by Winter et al. (1962), Proc. Soc. Exp. Biol. Med., 111:544 or in U.S. Pat. No. 4,150,137. Briefly, the assay was performed as follows. Each of twenty-four male Sprague-Dawley rats was assigned to one of four groups: Tripeptide treatment and controls (matched according to body weight and initial paw volume), hydrocortisone treatment and matched controls. The volume of the right rear paw of the test and control animals was determined using standard procedures and a mercury displacement volumetric technique. […] One hour later 0.5 ml of 1% lambda carrageenan in saline solution was injected into the right rear paw of the animals and the paw volume was again recorded (baseline measure). For comparison of the effects of the two treatments, paw volume of experimental animals measured at hourly intervals was expressed as a percentage of the volume change of their respective matched controls.

[3] = test system: inflammation induced in the ear by picryl chloride; experiment: Picryl chloride-induced ear swelling; type: in vivo, BALB/C mice
Description: Female BALB/C mice (Simmons Laboratories), 7 weeks old, were housed at 23-25° C. in groups of no more than 5 per cage [28 cm (L)×18 cm (W)×13 cm (H)]. They were allowed to acclimatize to standard lighting and temperature conditions for at least 1 week, with food and water available ad lib, before the experiment began. Five to ten animals were randomly assigned to each treatment group each test day, and all experiments were repeated at least twice to confirm reproducibility. To reduce error due to slight differences in responses to the irritant of animals from different shipments, tests of each agent were performed as separate experiments in which experimental and control animals were drawn from the same shipment.
In the experiments each animal was anesthetized with 1 mg of pentobarbital sodium solution (50 mg/kg, Nembutal, Abbott Laboratories, Abbott park, Ill.). Baseline ear thickness was measured for both ears with a spring-loaded micrometer (Swiss Precision Instruments, Los Angeles, Calif.). Ear thickness was expressed in units of 10^−3 cm; the average thickness of unstimulated ears was approximately 25-30×10^−3 cm. After baseline measurements were taken, one of six solutions was injected IP. Control animals received 0.2 ml of sterile saline, and experimental animals received Ac-α-MSH (11-13)-NH2, i.e., Ac-Lys-Pro-Val-NH2), Ac[D-Lys^11] α-MSH (11-13)-NH2, Ac[D-Pro^12] α-MSH (11-13)-NH2, Ac[D-Val^13] α-MSH (11-13)-NH2 or Ac-[D-Lys^11, D-Val^13] α-MSH (11-13)-NH2 in the same volume of saline. […] The doses of the tripeptides were 10 μg ([…]), 20 μg ([…]), 40 μg (1.04×10^−7 M), and 80 μg (2.08×10^−7 M). Immediately after saline or α-MSH injection, a micropipette was used to coat both sides of each ear with 10 μl (40 μl per mouse) of a 0.5% picryl chloride (Polysciences, Warrington, Pa.) solution in acetone.
Ear thickness was remeasured 3 and 6 h after picryl chloride application. Swelling was determined by subtracting baseline thickness from the measurements for each ear at 3 and 6 h. The differences for both ears were then averaged for the final analysis.
Repeated-measure ANOVA techniques were used to determine if there was an overall difference among group data for each peptide tested in separate experiments. In those cases in which the ANOVA yielded significant results, Dunnett's test was then used to compare the effects of peptide doses with control (saline) data for each of the two time periods, 3 and 6 h.

[4] = test system: inflammation induced in the hind paw; experiment: Kappa carrageenan-induced hind paw inflammation, spinal cord intact or transected; type: in vivo, BALB/c mice; details: given intraperitoneally, spinal cord transection
Description: Because surgical dissection of trigeminal structures that innervate the ear of the mouse is very difficult, tests to learn whether descending neural pathways are essential to the anti-inflammatory activity of centrally administered α-MSH peptides were performed in mice with inflammation induced in a hind paw. In these experiments, each animal was anesthetized with pentobarbital sodium solution as above. Baseline footpad thickness of both hind paws was measured with a spring-loaded micrometer (Swiss Precision Instruments, Los Angeles, Calif.). Paw thickness was expressed in units of 10^−3 cm; average thickness of unstimulated paws was 171.5×10^−3 cm across shipments of animals. Kappa carrageenan (Sigma) dissolved in saline (0.05%, 20 μl) was injected (28 gauge allergy test syringe) into one footpad, and saline (20 μl) was injected into the other. For the analyses, the increase in thickness of the control saline-injected paw of each animal was subtracted from that of the carrageenan-injected paw, to eliminate the influence of mechanical injury and volume of the injected fluid. To be certain that mice with severed spinal cords can react to anti-inflammatory agents, prednisolone (2.5 mg/mouse (IP injection)) was administered to 10 mice with spinal transection and inflammation induced by carrageenan. Treatment with the locally acting steroid reduced swelling up to 29% (average, relative to saline controls) at 4.5 h. after carrageenan.
However, a standardized crushing of lumbar vertebrae with a hemostat was effective in severing the cord; no deaths were caused by this treatment. […] The experiments were limited to 4.5 h to reduce problems of bowel and bladder dysfunction. Immediately after the 4.5 h measurements all mice were killed with an overdose of sodium pentobarbital.
Because of the size of the experiments and the requirement for several shipments of animals over time, several experiments were performed, each with complete treatment and control groups drawn from the same shipment of mice. Omnibus analysis of variance techniques (Dynastat, Washington, D.C.) were used to test overall differences among group means. Tukey's protected t test was used to compare individual means. Probability values of <0.05 were considered significant.

With “Ac-Lys-Pro-Val-NH2 [Ac-α-MSH(11-13)-NH2, protected tripeptide]” the “relative intensity of blue wheals, experimental vs control” value (“relative intensity of blue wheals” below) ([1]; 0.625 ug/kg intravenously) was “No difference”, the “relative intensity of blue wheals” value ([1]; 1.25 ug/kg intravenously) was “E lighter than C” and the “relative intensity of blue wheals” value ([1]; 5 ug/kg intravenously) was “E lighter than C”. For the same substance, the “relative intensity of blue wheals” value ([1]; 10 ug/kg intravenously) was “E lighter than C”, the “lowest intravenous dose with appreciable reduction in blue weal formation” value ([1]; intravenous) was 1.25 ug tripeptide per kg body weight and the “inhibition of paw edema compared with hydrocortisone” value [2] was “no significant difference in the inhibition of paw edema”. The “% Inhibition of swelling” value ([3]; 10 μg IP, 3 h) was 26%, the “% Inhibition of swelling” value ([3]; 10 μg IP, 6 h) was 25% and the “% Inhibition of swelling” value ([3]; 20 μg IP, 3 h) was 21%. The “% Inhibition of swelling” value ([3]; 20 μg IP, 6 h) was 19%, the “% Inhibition of swelling” value ([3]; 40 μg IP, 3 h) was 33% and the “% Inhibition of swelling” value ([3]; 40 μg IP, 6 h) was 26%. For the same substance, the “% Inhibition of swelling” value ([3]; 80 μg IP, 3 h) was 50%, the “% Inhibition of swelling” value ([3]; 80 μg IP, 6 h) was 42% and the “overall effect on ear inflammation (ANOVA)” value ([3]; 10-80 μg IP, 3 and 6 h) was “inhibited acute inflammation”. For the same substance, the “anti-inflammatory effect after spinal cord transection” value [4] was “marked inhibitory effect on inflammation”.
